The values below come from article PMC6877910, “Astrocyte-Targeted Transporter-Utilizing Derivatives of Ferulic Acid Can Have Multifunctional Effects Ameliorating Inflammation and Oxidative Stress in the Brain” (Oxidative Medicine and Cellular Longevity, 2019).

Structures are written as SMILES.

Series [1] relates to LPS-induced lipid peroxidation in primary astrocytes. In words: LPS-induced lipid peroxidation (malondialdehyde formation) in primary astrocytes. To be noted: 50 μM compound with 0.1 μg/mL LPS, 24 h. Format: cell-based, mouse. Here is the method:
Primary astrocytes were seeded at the density of 2 × 10^5 cells/well onto collagen-coated 6-well plates. The cells were used for the experiments 2 days after seeding, and first, they were treated with 0.1 μg/mL lipopolysaccharide (LPS) in prewarmed HBSS buffer (250 μL) at 37°C for 24 h. The control cells were treated with prewarmed HBSS buffer only. The ability of compound to inhibit the oxidative stress was evaluated by adding FA (50 μM) or its derivatives 1-3 in prewarmed HBSS buffer (250 μL) together with LPS and incubating the cells at 37°C for 24 h. Tocopherol (vitamin E) was used as a positive control. […] The mixtures were then centrifuged at 10 000 × g for 10 min, and 50 μL of the supernatant was analyzed on a 96-well plate, each experiment as three technical replicates from three biological replicates. The fluorescence was read by the EnVision plate reader (EnVision, PerkinElmer, Inc., Waltham, MA, USA) at λex 532 nm and λem 553 nm. The amount of produced malondialdehyde (MDA) in each experiment was quantified from the standard curve; various amounts (1-800 μM) of MDA and thiobarbituric acid in water were incubated in a thermoshaker at 95°C for 1 h and analyzed simultaneously as duplicates with each studied batch. […] The results were analyzed as μmol of formed MDA per mg protein.

In series [2] the test system is NF-κB. As to the kind of experiment: Total amount of NF-κB p65 (ELISA) in cells. Format: cell-based, mouse. To be noted: 100 μM; 24-96 h incubation. Here is the method: Enzyme-Linked Immunosorbent Assay (ELISA) kits were used (mTOR SimpleStep ELISA Kit and NFκB p65 Total SimpeStep ELISA Kit, Abcam, Cambridge, UK) to quantify mammalian (or mechanistic) target of rapamycin (mTOR) and transcription factor NF-κB amounts, respectively. […] The control wells were treated with the solvent only (0.5% DMSO). Cells were solubilized using the provided extraction buffer with the kit, incubated on ice for 20 minutes and centrifuged at 18 000 × g for 20 min at 4°C. The supernatants were stored at -80°C till the day of the analysis. Standards and samples were then analyzed following the manufacturer's protocol (ELISA sandwich method) and by reading the absorbance with the EnVision plate reader (EnVision, PerkinElmer, Inc., Waltham, MA, USA) at 450 nm. The results were analyzed as pmol of formed mTOR or NF-κB per mL.

The conditions of series [3]: mouse brain in vivo; previous study; cited from earlier work.
Series [4] relates to peroxidase activity of cyclooxygenases (COX). In words: Peroxidase activity of cyclooxygenases in cell lysates (fluorometric kit). It counts as biochemical. To be noted: 100 μM; 30 min; assay does not differentiate COX from LOX. As for the experimental part:
A coupled oxidation-reduction fluorometric assay was used to assess the inhibitory effect of compounds (100 μM) together with positive controls on the peroxidase activity of cyclooxygenases (COX) (ab204699 Cyclooxygenase Activity Assay Kit, Abcam, Cambridge, UK). The method has been done and validated according to the manufacturer's protocol. Briefly, studied compounds (100 μM) and the reaction mixture were incubated with the cell lysates at room temperature and the reaction was initiated by adding arachidonic acid/NaOH solution. The fluorescence was read in a kinetic mode after every 15 seconds for 30 minutes by the EnVision plate reader (EnVision, PerkinElmer, Inc., Waltham, MA, USA) at λex 535 nm and λem 587 nm.

Series [5] can be described thus: Bioconversion in mouse brain S9 subcellular fraction. It counts as in vitro ADME.
For series [6] the following is noted: cited from earlier work.
For series [7] the following is noted: 5 h incubation in vitro; previous study; cited from earlier work.

For the compound `COc1cc(C=CC(=O)Nc2cccc(CC(N)C(=O)O)c2)ccc1O` (centres unmarked) [FA-derivative 2], in series [1], the “MDA levels lower than in the control incubation” value is given as “approximately 12%”. In addition, the “Effect on total NF-κB levels” value in series [2] is “did not exert any effects”. Also, the “FA released in the brain” value in series [3] was “less than 5%”.

As to `COc1cc(/C=C/C(=O)O)ccc1O` [FA, trans-4-hydroxy-3-methoxycinnamic acid, reference compound], the “Inhibition of peroxidase activity of COX enzymes” value in series [4] is recorded as “inhibited the cellular peroxidase activity of COX enzymes”.

As to `COc1cc(C=CC(=O)Oc2cccc(CC(N)C(=O)O)c2)ccc1O` (centres unmarked) [FA-derivative 3], in series [5], the “Bioconversion in the presence of donepezil” value is on record as “no bioconversion at all was observed” and the half-life is approximately 3.58 h. Besides, in series [6] (in vitro human data), the “Bioconversion in human plasma” value is listed as “rather insignificant” and the “Human hepatic intrinsic clearance, times slower than in mouse” value is 10 times. In addition, in series [6] (previous study), the “Stability in human plasma and liver S9 subcellular fraction, times more stable (than in mouse)” value is listed as 10 times.

As for `COc1cc(C=CC(=O)NCc2cccc(CC(N)C(=O)O)c2)ccc1O` (centres unmarked) [FA-derivative 1], the “FA released / stability in mouse brain S9 subcellular fraction” value in series [7] is given as “remained intact”. The “FA released in the brain” value in series [3] is “did not release any FA”.
